Assay results reported in patent US12600726B2, “Antagonists of the muscarinic acetylcholine receptor M4” (Vanderbilt University, priority 2017, dated 2026).

What was measured:
Rat M4 = molecular target: T1, Rat M4 (Rattus norvegicus, UniProt P08485); test: mAChR M4 cell-based functional calcium flux assay (rat M4/Gqi5/CHO cells); conditions: for Emin (rat M4): % ACh maximum at 30 μM
T1 construct: expressed in transfected cells; host or cells: CHO-K1 (ATCC), stably expressing M4 and Gqi5
T1 sequence (P08485 1-478): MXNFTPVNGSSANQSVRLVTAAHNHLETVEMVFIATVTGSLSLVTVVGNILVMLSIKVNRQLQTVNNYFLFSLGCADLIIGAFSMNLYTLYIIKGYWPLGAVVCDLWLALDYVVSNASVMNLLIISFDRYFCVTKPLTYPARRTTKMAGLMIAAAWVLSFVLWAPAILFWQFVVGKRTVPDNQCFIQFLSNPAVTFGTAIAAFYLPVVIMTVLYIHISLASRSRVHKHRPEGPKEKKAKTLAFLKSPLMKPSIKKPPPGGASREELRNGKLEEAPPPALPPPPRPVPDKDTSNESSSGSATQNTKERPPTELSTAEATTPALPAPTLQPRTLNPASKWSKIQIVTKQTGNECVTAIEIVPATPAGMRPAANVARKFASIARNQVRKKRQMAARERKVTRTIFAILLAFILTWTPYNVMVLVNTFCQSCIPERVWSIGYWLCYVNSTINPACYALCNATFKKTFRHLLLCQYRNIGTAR
Outline: (§1)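 CHO-K1 cells stably co-expressing M4 of the given species with chimeric Gqi5 were loaded with Fluo-4 AM and read for calcium flux. Compounds (10-point, 1:3 dilutions) were added first, followed by an acetylcholine EC20 at 143 s and an EC80 at 268 s. IC50 reflects the concentration-dependent fall in the EC80 response, fitted with a four-parameter logistic.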

Human M4 = molecular target: T2, Human M4 (Homo sapiens, UniProt P08173); test: mAChR M4 cell-based functional calcium flux assay (human M4/Gqi5/CHO cells); conditions: for Emin (human M4): % ACh maximum at 30 μM; for IC50: decrease of the response to an EC80 concentration of acetylcholine
T2 construct: expressed in transfected cells; host or cells: CHO-K1 (ATCC), stably expressing M4 and Gqi5
T2 sequence (P08173 1-479): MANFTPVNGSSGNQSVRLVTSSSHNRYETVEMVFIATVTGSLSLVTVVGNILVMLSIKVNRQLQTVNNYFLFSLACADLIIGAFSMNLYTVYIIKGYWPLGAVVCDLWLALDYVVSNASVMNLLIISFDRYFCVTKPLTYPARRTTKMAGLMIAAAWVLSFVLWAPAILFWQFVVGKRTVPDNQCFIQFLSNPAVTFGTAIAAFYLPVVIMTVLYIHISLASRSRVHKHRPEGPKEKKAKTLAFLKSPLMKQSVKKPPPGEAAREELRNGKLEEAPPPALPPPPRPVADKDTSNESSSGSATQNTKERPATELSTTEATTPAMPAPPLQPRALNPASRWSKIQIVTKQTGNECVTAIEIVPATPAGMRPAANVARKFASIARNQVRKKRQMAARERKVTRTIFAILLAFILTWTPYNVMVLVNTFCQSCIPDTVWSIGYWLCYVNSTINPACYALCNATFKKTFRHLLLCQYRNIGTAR
Outline: as §1

[1] = decrease of the response to an EC80 concentration of acetylcholine
[2] = cells printed in μM, decrease of the EC80 acetylcholine response

Emin (rat M4) (Rat M4) [%] | IC50 (Rat M4; [1]) [µM] | Emin (human M4) (Human M4) [%] | IC50 (Human M4) [nM] | IC50 (Rat M4; [2]) [µM] | SMILES
4 | 0.35 | 3 | 170 |  | Cc1nn(C)cc1-c1nnc(NCC2CC23CCN(CC24CC5CC(CC(C5)C2)C4)CC3)c2ccccc12 (stereo not drawn) [Compound 89, N-[[6-(1-adamantylmethyl)-6-azaspiro[2.5]octan-2-yl]methyl]-4-(1,3-dimethylpyrazol-4-yl)phthalazin-1-amine]
6 | 1.25 | 5 | 265 |  | Cc1nn(C)cc1-c1nnc(NCC2CC23CCN(Cc2ccccc2)CC3)c2ccccc12 (stereo not drawn) [Compound 88, N-[(6-benzyl-6-azaspiro[2.5]octan-2-yl)methyl]-4-(1,3-dimethylpyrazol-4-yl)phthalazin-1-amine]
53.6 | 9.49 | 19.4 | 4690 |  | CCCN1CCC2(CC1)CC2CNc1ccc(-c2cn(C)nc2C)nn1 (stereo not drawn) [Compound 54, 6-(1,3-dimethylpyrazol-4-yl)-N-[(6-propyl-6-azaspiro[2.5]octan-2-yl)methyl]pyridazin-3-amine]
28 |  | 14 | 1810 | ≥ 10 | CC(=O)Nc1ccc(-c2ccc(NC[C@H]3CC34CCN(CC3CCOCC3)CC4)nn2)cc1 [Compound 126, N-[4-[6-[[(2S)-6-(tetrahydropyran-4-ylmethyl)-6-azaspiro[2.5]octan-2-yl]methylamino]pyridazin-3-yl]phenyl]acetamide]
4.18 | 1.8 | 4.09 | 749 |  | CC(C)(C)CCN1CCC2(CC1)CC2CNc1ccc(-c2cc(F)ccc2Cl)cn1 (stereo not drawn) [Compound 69, 5-(2-chloro-5-fluoro-phenyl)-N-[[6-(3,3-dimethylbutyl)-6-azaspiro[2.5]octan-2-yl]methyl]pyridin-2-amine]
12 | 0.32 | 12 | 1410 |  | CC(=O)Nc1ccc(-c2ccc(NC[C@@H]3CC34CCN(Cc3ncccc3C)CC4)nn2)cc1 [Compound 122, N-[4-[6-[[(2R)-6-[(3-methyl-2-pyridyl)methyl]-6-azaspiro[2.5]octan-2-yl]methylamino]pyridazin-3-yl]phenyl]acetamide]
5 | 0.0167 | 4 | 5.85 |  | CC(=O)Nc1ccc(-c2ccc(NC[C@@H]3CC34CCN(CC3CCCCC3)CC4)nn2)cc1 [Compound 118, N-[4-[6-[[(2R)-6-(cyclohexylmethyl)-6-azaspiro[2.5]octan-2-yl]methylamino]pyridazin-3-yl]phenyl]acetamide]
9.84 | 3.09 | 8.96 | 6550 |  | c1ccc(-c2cnc(NCC3CC34CCN(CC3CCOCC3)CC4)s2)cc1 (stereo not drawn) [Compound 73, 5-phenyl-N-[[6-(tetrahydropyran-4-ylmethyl)-6-azaspiro[2.5]octan-2-yl]methyl]thiazol-2-amine]
3.95 | 0.151 | 3.50 | 9.91 |  | CC(C)(C)CCN1CCC2(CC1)C[C@@H]2CNc1ccc(-c2cc(F)ccc2Cl)nn1 [Compound 66, (S)-6-(2-chloro-5-fluoro-phenyl)-N-[[6-(3,3-dimethylbutyl)-6-azaspiro[2.5]octan-2-yl]methyl]pyridazin-3-amine]
3 | 0.0481 | 2 | 9.89 |  | Fc1ccc(Cl)c(-c2ccc(NC[C@@H]3CC34CCN(CC3CC5C=CC3C5)CC4)nn2)c1 (stereo partly drawn) [Compound 108, N-(((1R)-6-(bicyclo[2.2.1]hept-5-en-2-ylmethyl)-6-azaspiro[2.5]octan-1-yl)methyl)-6-(2-chloro-5-fluorophenyl)pyridazin-3-amine]
5 | 0.223 | 2 | 25.7 |  | Cc1cccnc1CN1CCC2(CC1)C[C@H]2CNc1ccc(-c2cc(F)ccc2Cl)nn1 [Compound 114, 6-(2-chloro-5-fluoro-phenyl)-N-[[(2R)-6-[(3-methyl-2-pyridyl)methyl]-6-azaspiro[2.5]octan-2-yl]methyl]pyridazin-3-amine]
4.72 | 0.833 | 4.74 | 1270 |  | C1=CC2CC1CC2CN1CCC2(CC1)CC2CNc1ncc(-c2ccccc2)s1 (stereo not drawn) [Compound 71, N-[[6-(5-bicyclo[2.2.1]hept-2-enylmethyl)-6-azaspiro[2.5]octan-2-yl]methyl]-5-phenyl-thiazol-2-amine]
19.9 |  | 4.53 | 537 | > 10 | Cc1nn(C)cc1-c1ccc(NCC2CC23CCN(Cc2ncccc2C(F)(F)F)CC3)nn1 (stereo not drawn) [Compound 63, 6-(1,3-dimethylpyrazol-4-yl)-N-[[6-[[3-(trifluoromethyl)-2-pyridyl]methyl]-6-azaspiro[2.5]octan-2-yl]methyl]pyridazin-3-amine]

Second part, the molecule before the results:

SMILES | Emin (rat M4) (Rat M4) [%] | IC50 (Rat M4; [1]) [µM] | Emin (human M4) (Human M4) [%] | IC50 (Human M4) [nM] | IC50 (Rat M4; [2]) [µM]
CCN1CCC2(CC1)CC2CNc1ccc(-c2cn(C)nc2C)nn1 (stereo not drawn) [Compound 53, 6-(1,3-dimethylpyrazol-4-yl)-N-[(6-ethyl-6-azaspiro[2.5]octan-2-yl)methyl]pyridazin-3-amine] | 75.5 |  | 75.5 |  | > 10
Fc1ccc(Cl)c(-c2ccc(NCC3CC34CCN(CC3CCCCC3)CC4)nn2)c1 (stereo not drawn) [Compound 14, 6-(2-chloro-5-fluoro-phenyl)-N-[[6-(cyclohexylmethyl)-6-azaspiro[2.5]octan-2-yl]methyl]pyridazin-3-amine] | 2.42 | 0.228 | 1.95 | 17.7 | 
Fc1ccc(Cl)c(-c2ccc(NCC3CC34CCN(Cc3ncccc3C(F)(F)F)CC4)nn2)c1 (stereo not drawn) [Compound 1, 6-(2-chloro-5-fluorophenyl)-N-((6-((3-(trifluoromethyl)pyridin-2-yl)methyl)-6-azaspiro[2.5]octan-1-yl)methyl)pyridazin-3-amine] | 2.75 | 1.15 | 2.74 | 74.6 | 
CC(C)(C)CCN1CCC2(CC1)CC2CNc1ccc(-c2ccc3ccccc3c2)nn1 (stereo not drawn) [Compound 47, N-[[6-(3,3-dimethylbutyl)-6-azaspiro[2.5]octan-2-yl]methyl]-6-(2-naphthyl)pyridazin-3-amine] | 2.90 | 0.39 | 2.97 | 208 | 
Cc1cnn(C)c1-c1ccc(NC(=O)C2CC23CCN(CCC(C)(C)C)CC3)nn1 (stereo not drawn) [Compound 5, N-(6-(1,4-dimethyl-1H-pyrazol-5-yl)pyridazin-3-yl)-6-(3,3-dimethylbutyl)-6-azaspiro[2.5]octane-1-carboxamide] | 18.7 | 5.72 | 5.53 | 1680 | 
CC(C)(C)CCN1CCC2(CC1)CC2CNc1ccc(-c2ccccc2OC(F)(F)F)nn1 (stereo not drawn) [Compound 48, N-[[6-(3,3-dimethylbutyl)-6-azaspiro[2.5]octan-2-yl]methyl]-6-[2-(trifluoromethoxy)phenyl]pyridazin-3-amine] | 2.26 | 0.387 | 2.63 | 64.4 | 
Cc1nn(C)cc1-c1ccc(NCC2CC23CCN(C[C@H]2C[C@@H]4CC[C@H]2O4)CC3)nn1 (stereo partly drawn) [Compound 3, N-((6-(((1R,2R,4S)-7-Oxabicyclo[2.2.1]heptan-2-yl)methyl)-6-azaspiro[2.5]octan-1-yl)methyl)-6-(1,3-dimethyl-1H-pyrazol-4-yl)pyridazin-3-amine] | 7.69 | 0.742 | 3.52 | 43.6 | 
Cc1ccsc1-c1ccc(NCC2CC23CCN(CCC(C)(C)C)CC3)nn1 (stereo not drawn) [Compound 42, N-[[6-(3,3-dimethylbutyl)-6-azaspiro[2.5]octan-2-yl]methyl]-6-(3-methyl-2-thienyl)pyridazin-3-amine] | 2.94 | 0.0497 | 2.88 | 11.2 | 
Cc1nn(C)cc1-c1cnc(NCC2CC23CCN(CCC(C)(C)C)CC3)cn1 (stereo not drawn) [Compound 23, N-[[6-(3,3-dimethylbutyl)-6-azaspiro[2.5]octan-2-yl]methyl]-5-(1,3-dimethylpyrazol-4-yl)pyrazin-2-amine] | 4.71 | 0.278 | 2.71 | 64.7 | 
